Reference: paper PMC9655618 (Cancers, 2022)

How the values were obtained:
T47D cells = experiment: MTT cell viability assay; type: cell-based, human; conditions: Homo sapiens, T47D, 72 h, 10%FBS growth media
Procedure: Straightforward, the tetrazolium salt 3-(4,5-methyltiazol-2yl-)-2,5diphenyl-tetrazolium bromide (MTT) (Applichen, Darmstadt, Germany) was added to cells, incubated for 2–4 h at 37 °C, and lysed in 10% SDS. The mitochondrial metabolization of the tetrazolium salt was determined by the analysis of the optical density at 595 nm, measured with the iMark microplate Reader (Bio–Rad, Irvine, CA, USA).

[1] = target: T1, native ERα from rat uterine cytosol (Rattus norvegicus, UniProt P06211); experiment: Radiolabeled E2 competitor binding assay in rat uterine cytosol (RUC)
T1 construct: from tissue; host or cells: uterine cytosol of ovariectomized Sprague-Dawley rats
T1 sequence (P06211 whole entry): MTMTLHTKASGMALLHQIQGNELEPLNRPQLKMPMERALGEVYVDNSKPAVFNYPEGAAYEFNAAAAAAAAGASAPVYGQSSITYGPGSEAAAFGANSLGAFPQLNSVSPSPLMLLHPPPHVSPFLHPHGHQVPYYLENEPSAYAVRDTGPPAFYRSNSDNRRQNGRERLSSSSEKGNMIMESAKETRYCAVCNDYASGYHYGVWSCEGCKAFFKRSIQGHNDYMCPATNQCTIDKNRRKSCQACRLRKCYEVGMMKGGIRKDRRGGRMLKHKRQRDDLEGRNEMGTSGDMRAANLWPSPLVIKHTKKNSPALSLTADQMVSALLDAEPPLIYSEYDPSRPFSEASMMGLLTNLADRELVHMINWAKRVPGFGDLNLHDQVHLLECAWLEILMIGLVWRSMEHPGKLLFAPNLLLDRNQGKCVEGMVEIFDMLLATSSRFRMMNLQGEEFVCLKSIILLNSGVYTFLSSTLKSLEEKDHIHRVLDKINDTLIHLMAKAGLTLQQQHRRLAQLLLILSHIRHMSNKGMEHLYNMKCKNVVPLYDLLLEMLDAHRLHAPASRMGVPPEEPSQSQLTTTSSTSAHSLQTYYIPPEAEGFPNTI
Procedure: Animal studies were approved by the Bioethics Committee of the University of Las Palmas de Gran Canaria (OEBA-ULPGC 40/2020), and the experiments were carried out according to OECD guidelines (ER-RVC OPPTS 890.1250). ER was obtained from rat uterine cytosol (RUC). Briefly, RUC was extracted from 8–12 weeks old Sprague-Dawley rats 13–16 days after they were ovariectomized under ketamine (75 mg/kg)/medetomidine (1 mg/kg) anesthesia. Uteri were removed, trimmed free of adipose tissue, blotted, weighed and frozen on liquid nitrogen until RUC isolation. Then, 100 mg of uteri per ml of ice-cold TEGM buffer (10 mM Tris, 1.5 mM EDTA, 10% glycerol, 3 mM MgCl2, 1 mM PMSF, 1 mM DTT, pH 7.4) were homogenized by using a Polytron PT3000 homogenizer (Kinematica, Malters, Switzerland) at 15,000 rpm for 3 bursts of 30″ each. The homogenate was sedimented, and the supernatant was centrifuged at 105,000 g for 60 min at 4 °C to obtain RUC. Protein concentration was determined by Bradford´s assay (Bio-Rad, Irvine, CA, USA), and 2 mg/mL of RUC was taken from all samples [35]. […] Then, 200 μL of DCC suspension (0.8% charcoal: 0.08% dextran; w:w) in cold TE buffer was added to each tube and incubated for 10 min before DCC was centrifuged at 3000 g for 10 min at 4 °C. Supernatant (200 μL) was obtained to measure total and non-specific bound radioactivity in TRICARB 4810 LSC counter (PerkinElmer). […]

MCF-7 cells = experiment: Real-time monitoring of 2D cell growth (IncuCyte); type: cell-based; conditions: Homo sapiens, MCF7, 120 h; complete estrogenic media (10%FBS), 5 days, AUC
Procedure: (§1) To monitor long-term growth, human ER+ BC (T47-D, MCF-7, MCF-7/BUS), ER+ endometrial (Ishiwaka, High Point, NC, USA), or non-malignant breast (MCF-10A) cells were seeded at 3000–6000 cells per well. […] When indicated, cells were estrogen-deprived in a 10DCC-FBS supplemented medium for one week. […] Cytotoxicity was monitored by using YOYO-1 (Invitrogen, Waltham, MA, USA). Cell proliferation and cytotoxicity were monitored by sequential real-time microphotographs in an IncuCyte HD real-time imaging system (Essen BioScience, Hertfordshire, UK) for 5–10 days. The area under the curve (AUC) was then analyzed to know both the kinetics and dose-effect relationships. […] Next, cells were treated with VEH (0.05% DMSO) or test compounds for 5–10 days. Spheroid size and cell cytotoxicity were recorded with the Incucyte SX5 Live-Cell Analysis Instrument (Sartorius AG, Göttingen, Germany). To calculate the spheroid growth area, confluence measurements were taken considering the largest brightfield object area (µm^2). Cytotoxicity was monitored by using YOYO-1 (Essen Bioscience, Hertfordshire, UK).

[2] = system: T47D estrogen-depleted cells; experiment: E2-induced proliferation of estrogen-depleted cells (AUC of growth kinetics); type: cell-based; conditions: E2-depleted conditions
Procedure: as §1

[3] = Real-time monitoring of cell proliferation and cytotoxicity (YOYO-1); conditions: human, Ishikawa cells (ER+ endometrial cancer cells)
Procedure: as §1

Ishikawa cells = experiment: as above; conditions: for effect on growth of E2-depleted Ishikawa cells: 4-OHTAM 3 μM, compounds 5 µM, 7 days; for IC50: Homo sapiens, Ishikawa, 120 h, read-out: IC50, cell proliferation (AUC)
Procedure: as §1

[4] = target: T2, ERα protein level in T47D cells (Homo sapiens, UniProt P03372); experiment: Immunoblotting; type: cell-based; conditions: E2-non depleted T47D cells, 24, 48 and 72 h
T2 construct: from whole-cell extracts of T47D cells; endogenous in cells; host or cells: T47D
Procedure: Then, they were washed with ice-cold PBS supplemented with 1 mM ortovanadate and lysed with RIPA buffer containing protease and phosphatase inhibitors (Thermo Fisher Scientific, Waltham, MA, USA). Equal protein amounts were analyzed by SDS–PAGE, and transferred to nitrocellulose membranes (Thermo Fisher Scientific, Waltham, MA, USA), blocked with Tris-buffered saline/0.05% Tween 20 (TBS-T) containing 5% blotto (Merck, Darmstadt, Germany) or 5% BSA for total and phosphorylated proteins, respectively. Immunoblotting was carried out with mouse anti-ERα F-10 (Santa Cruz Biotech, Santa Cruz, CA, USA), rabbit total anti-STAT5 (Cell Signaling Technology, Leiden, The Netherlands) or mouse anti-polyubiquitin (EMD Millipore, Burlington, MA, USA). After washing, membranes were incubated with horseradish peroxidase-conjugated secondary antibodies (Bio-Rad) for 1 h at room temperature. The β-actin antibody (Santa Cruz Biotech, CA, USA) was used as the loading control. Finally, protein bands were visualized by using Clarity™ Western ECL Substrate (Bio-Rad) in the ChemiDoc XRS system (Bio-Rad) and were analyzed with Quantity One software (Bio-Rad).

[5] = system: androgen receptor (AR)-dependent transcriptional activity, MDA-kb2 cells; experiment: AR-mediated transcription, luciferase reporter in MDA-kb2 cells (testosterone); conditions: 100 nM Testosterone; compounds 1–10 µM

Compound: Cc1ccc(C2=CC(O)(c3ccccc3)N(Cc3ccccc3)C2=O)cc1C (stereo not drawn) [compound 32, 1-benzyl-3-(3,4-dimethylphenyl)-5-hydroxy-5-phenyl-1H-pyrrol-2(5H)-one]
- IC50 (T47D cells): 10.6 ± 0.58 µM
- IC50 [1]: 128.4 ± 1.25 µM
- IC50 (MCF-7 cells): 1.52 ± 1.25 µM
- estrogenic effect on growth [2]: did not increase the growth of ER+ BC cells
- EC50 at 5 days [3]: > 10 µM
- effect on growth of E2-depleted Ishikawa cells (Ishikawa cells): this effect was not observed
- IC50 (Ishikawa cells): 2.1 µM
- effect on ERα protein level [4]: needed a longer time of cell exposure
- effect on T-induced luciferase activity [5]: Neither 4-OHTAM nor compounds 32 or 35 displayed cross-activation

Compound: O=C1C(c2ccc([N+](=O)[O-])cc2)=CC(O)(c2ccccc2)N1Cc1ccccc1 (stereo not drawn) [compound 35, 1-benzyl-5-hydroxy-3-(4-nitrophenyl)-5-phenyl-1H-pyrrol-2(5H)-one]
- IC50 (T47D cells): 5.31 ± 0.47 µM
- IC50 [1]: 76.6 ± 1.3 µM
- IC50 (MCF-7 cells): 4.3 ± 0.77 µM
- estrogenic effect on growth [2]: did not increase the growth of ER+ BC cells
- EC50 at 5 days [3]: 10 µM
- effect on growth of E2-depleted Ishikawa cells (Ishikawa cells): this effect was not observed
- IC50 (Ishikawa cells): 3.81 µM
- effect on ERα protein level [4]: dose-dependent (Figure 14B) decrease of ERα protein content
- effect on T-induced luciferase activity [5]: Neither 4-OHTAM nor compounds 32 or 35 displayed cross-activation
